Key:
Experiment in all cases: radiometric filter-binding kinase assay
[1] = molecular target: MAPKAPK2 (human) (UniProt P49137); settings: ATP 20 µM
[2] = molecular target: HIPK3 (human) (UniProt Q9H422); settings: ATP 20 µM
[3] = molecular target: MAPK13 (human) (UniProt O15264); settings: ATP 5 µM
[4] = molecular target: DYRK1A (human) (UniProt Q13627); settings: ATP 50 µM
[5] = molecular target: NEK6 (human) (UniProt Q9HC98); settings: ATP 50 µM
[6] = molecular target: STK3 (human) (UniProt Q13188); settings: ATP 20 µM
[7] = molecular target: MAPK3 (human) (UniProt P27361); settings: ATP 5 µM
[8] = molecular target: PDPK1 (human) (UniProt O15530)
[9] = molecular target: CHEK2 (human) (UniProt O96017); settings: ATP 20 µM
[10] = molecular target: MAPK1 (human) (UniProt P28482); settings: ATP 50 µM
[11] = molecular target: PIM1 (human) (UniProt P11309); settings: ATP 20 µM
[12] = molecular target: PKN2 (human) (UniProt Q16513); settings: ATP 5 µM
[13] = system: AKT1 (human), P31749 [S473D]; settings: ATP 5 µM
[14] = molecular target: PAK7 (human) (UniProt Q9P286); settings: ATP 20 µM
[15] = molecular target: PRKCA (human) (UniProt P17252); settings: ATP 20 µM
[16] = molecular target: CSNK2A1 or CSNK2A2 (human) (UniProt P19784+P68400); settings: ATP 5 µM
[17] = molecular target: PAK4 (human) (UniProt O96013); settings: ATP 5 µM
[18] = molecular target: MARK3 (human) (UniProt P27448); settings: ATP 5 µM
[19] = molecular target: HIPK2 (human) (UniProt Q9H2X6); settings: ATP 5 µM
[20] = molecular target: MYLK (human) (UniProt Q15746); settings: ATP 50 µM
[21] = molecular target: MAPK10 (human) (UniProt P53779); settings: ATP 50 µM
[22] = molecular target: AURKB (human) (UniProt Q96GD4); settings: ATP 20 µM
[23] = molecular target: MAPK11 (human) (UniProt Q15759); settings: ATP 20 µM
[24] = molecular target: CAMKK2 (human) (UniProt Q96RR4); settings: ATP 20 µM
[25] = system: SRC (chicken); settings: ATP 50 µM, accession and sequence are those of the human protein
[26] = molecular target: PAK6 (human) (UniProt Q9NQU5); settings: ATP 20 µM
[27] = molecular target: MAPKAPK3 (human) (UniProt Q16644); settings: ATP 20 µM
[28] = molecular target: CAMKK1 (human) (UniProt Q8N5S9); settings: ATP 20 µM
[29] = molecular target: CSK (human) (UniProt P41240); settings: ATP 20 µM
[30] = molecular target: CSNK1D (human) (UniProt P48730); settings: compound 0.01 µM; ATP 20 µM

PIM1 (human), sequence (P11309 whole entry, looked up): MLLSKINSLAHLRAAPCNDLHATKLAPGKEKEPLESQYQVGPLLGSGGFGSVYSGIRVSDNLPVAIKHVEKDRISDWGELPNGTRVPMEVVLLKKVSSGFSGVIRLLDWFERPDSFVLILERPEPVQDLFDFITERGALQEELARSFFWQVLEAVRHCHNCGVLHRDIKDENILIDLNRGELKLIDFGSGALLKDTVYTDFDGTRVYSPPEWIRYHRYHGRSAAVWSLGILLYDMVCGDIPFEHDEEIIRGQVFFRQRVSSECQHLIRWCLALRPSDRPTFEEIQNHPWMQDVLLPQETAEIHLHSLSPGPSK
NEK6 (human), sequence (Q9HC98 whole entry, looked up): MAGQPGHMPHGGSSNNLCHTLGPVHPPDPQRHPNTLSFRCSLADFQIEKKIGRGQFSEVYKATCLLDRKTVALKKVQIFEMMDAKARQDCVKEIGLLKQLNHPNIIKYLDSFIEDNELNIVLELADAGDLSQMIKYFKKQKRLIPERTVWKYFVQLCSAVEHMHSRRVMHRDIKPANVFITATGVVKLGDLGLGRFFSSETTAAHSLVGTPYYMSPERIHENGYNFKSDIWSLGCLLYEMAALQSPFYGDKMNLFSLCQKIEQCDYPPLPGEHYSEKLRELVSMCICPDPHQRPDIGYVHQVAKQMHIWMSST
STK3 (human), sequence (Q13188 whole entry, looked up): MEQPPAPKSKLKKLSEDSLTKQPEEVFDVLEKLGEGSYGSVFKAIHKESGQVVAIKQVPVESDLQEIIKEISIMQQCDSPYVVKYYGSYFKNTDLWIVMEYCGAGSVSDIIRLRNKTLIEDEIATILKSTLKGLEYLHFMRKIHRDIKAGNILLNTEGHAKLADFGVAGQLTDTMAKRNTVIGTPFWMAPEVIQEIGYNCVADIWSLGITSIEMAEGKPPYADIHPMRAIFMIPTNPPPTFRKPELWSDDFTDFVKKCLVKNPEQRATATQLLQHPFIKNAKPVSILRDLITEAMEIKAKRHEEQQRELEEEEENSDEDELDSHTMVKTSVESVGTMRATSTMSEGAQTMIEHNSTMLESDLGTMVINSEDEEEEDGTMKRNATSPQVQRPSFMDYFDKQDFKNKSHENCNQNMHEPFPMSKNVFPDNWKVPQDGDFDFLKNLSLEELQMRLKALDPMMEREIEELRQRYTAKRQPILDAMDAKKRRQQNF
AURKB (human), sequence (Q96GD4 whole entry, looked up): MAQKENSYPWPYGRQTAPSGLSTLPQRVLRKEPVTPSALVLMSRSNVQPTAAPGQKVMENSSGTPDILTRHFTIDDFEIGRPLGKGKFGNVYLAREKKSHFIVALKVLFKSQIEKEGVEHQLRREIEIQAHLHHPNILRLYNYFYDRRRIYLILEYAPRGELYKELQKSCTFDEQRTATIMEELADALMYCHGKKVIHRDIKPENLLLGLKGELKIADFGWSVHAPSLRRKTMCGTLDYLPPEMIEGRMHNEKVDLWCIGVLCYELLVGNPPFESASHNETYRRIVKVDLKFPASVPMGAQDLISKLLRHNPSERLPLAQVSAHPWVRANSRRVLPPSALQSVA
MYLK (human), sequence (Q15746 whole entry, looked up): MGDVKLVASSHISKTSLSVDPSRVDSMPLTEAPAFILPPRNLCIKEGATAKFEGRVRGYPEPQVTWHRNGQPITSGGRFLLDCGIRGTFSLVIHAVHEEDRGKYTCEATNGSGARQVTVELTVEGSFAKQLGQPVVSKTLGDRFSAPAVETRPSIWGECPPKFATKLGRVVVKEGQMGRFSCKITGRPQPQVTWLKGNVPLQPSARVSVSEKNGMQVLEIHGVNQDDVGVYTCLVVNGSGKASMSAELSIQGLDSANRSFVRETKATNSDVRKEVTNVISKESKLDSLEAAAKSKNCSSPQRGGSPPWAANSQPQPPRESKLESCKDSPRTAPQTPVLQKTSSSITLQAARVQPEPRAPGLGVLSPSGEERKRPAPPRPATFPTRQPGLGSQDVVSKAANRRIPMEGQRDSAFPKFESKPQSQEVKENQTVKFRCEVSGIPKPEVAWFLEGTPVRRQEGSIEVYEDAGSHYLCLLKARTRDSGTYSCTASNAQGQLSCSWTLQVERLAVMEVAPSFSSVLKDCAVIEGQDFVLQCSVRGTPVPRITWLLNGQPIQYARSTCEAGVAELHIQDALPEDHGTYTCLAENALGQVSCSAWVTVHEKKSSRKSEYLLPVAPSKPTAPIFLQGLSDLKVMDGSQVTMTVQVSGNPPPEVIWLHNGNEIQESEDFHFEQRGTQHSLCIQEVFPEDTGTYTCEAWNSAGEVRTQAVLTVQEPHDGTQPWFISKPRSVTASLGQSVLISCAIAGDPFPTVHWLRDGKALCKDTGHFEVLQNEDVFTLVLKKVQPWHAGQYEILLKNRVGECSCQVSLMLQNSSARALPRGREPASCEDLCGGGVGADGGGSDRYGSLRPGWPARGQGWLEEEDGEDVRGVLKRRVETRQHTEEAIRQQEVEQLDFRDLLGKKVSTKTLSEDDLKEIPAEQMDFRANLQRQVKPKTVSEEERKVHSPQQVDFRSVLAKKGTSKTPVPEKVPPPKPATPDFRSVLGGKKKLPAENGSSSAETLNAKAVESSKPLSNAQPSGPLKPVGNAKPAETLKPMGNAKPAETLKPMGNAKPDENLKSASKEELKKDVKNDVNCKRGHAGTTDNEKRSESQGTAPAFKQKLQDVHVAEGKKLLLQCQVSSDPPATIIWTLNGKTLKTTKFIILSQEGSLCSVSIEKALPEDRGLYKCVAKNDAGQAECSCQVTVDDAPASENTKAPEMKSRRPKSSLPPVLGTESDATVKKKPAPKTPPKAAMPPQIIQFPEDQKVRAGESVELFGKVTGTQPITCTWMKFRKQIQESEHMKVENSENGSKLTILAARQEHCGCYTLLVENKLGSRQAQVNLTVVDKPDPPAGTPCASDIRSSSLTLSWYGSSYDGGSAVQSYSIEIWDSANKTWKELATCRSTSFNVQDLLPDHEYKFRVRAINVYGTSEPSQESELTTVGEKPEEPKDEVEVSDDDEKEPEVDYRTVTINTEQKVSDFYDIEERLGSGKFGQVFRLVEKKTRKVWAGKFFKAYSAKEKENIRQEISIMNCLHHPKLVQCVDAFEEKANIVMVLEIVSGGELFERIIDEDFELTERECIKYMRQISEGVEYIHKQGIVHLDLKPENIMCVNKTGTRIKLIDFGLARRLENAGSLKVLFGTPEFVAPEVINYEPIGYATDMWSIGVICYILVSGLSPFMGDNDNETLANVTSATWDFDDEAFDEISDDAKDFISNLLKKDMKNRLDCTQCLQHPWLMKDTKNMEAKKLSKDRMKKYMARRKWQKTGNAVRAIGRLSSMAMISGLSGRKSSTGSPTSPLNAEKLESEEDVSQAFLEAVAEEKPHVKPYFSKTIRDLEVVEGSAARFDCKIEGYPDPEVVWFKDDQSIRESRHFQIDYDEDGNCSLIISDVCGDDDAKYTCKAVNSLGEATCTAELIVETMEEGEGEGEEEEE
PAK7 (human), sequence (Q9P286 whole entry, looked up): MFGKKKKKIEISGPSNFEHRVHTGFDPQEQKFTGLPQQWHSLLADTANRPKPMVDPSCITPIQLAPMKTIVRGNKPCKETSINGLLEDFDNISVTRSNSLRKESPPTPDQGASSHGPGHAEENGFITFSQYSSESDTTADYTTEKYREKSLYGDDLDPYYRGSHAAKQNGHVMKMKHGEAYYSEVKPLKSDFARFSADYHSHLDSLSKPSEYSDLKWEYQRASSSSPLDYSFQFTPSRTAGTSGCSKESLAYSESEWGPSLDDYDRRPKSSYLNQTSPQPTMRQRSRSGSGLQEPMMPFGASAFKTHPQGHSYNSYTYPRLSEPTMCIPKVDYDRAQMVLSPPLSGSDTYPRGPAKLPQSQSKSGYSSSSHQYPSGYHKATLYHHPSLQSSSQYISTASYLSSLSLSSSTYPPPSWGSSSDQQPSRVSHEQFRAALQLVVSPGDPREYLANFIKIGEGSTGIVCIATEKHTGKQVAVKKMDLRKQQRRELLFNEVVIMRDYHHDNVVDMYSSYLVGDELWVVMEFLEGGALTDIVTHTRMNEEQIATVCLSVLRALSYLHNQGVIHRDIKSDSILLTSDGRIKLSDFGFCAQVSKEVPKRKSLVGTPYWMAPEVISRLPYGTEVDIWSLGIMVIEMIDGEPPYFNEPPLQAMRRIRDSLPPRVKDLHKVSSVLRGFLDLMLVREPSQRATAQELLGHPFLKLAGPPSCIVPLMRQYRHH
MAPKAPK2 (human), sequence (P49137 whole entry, looked up): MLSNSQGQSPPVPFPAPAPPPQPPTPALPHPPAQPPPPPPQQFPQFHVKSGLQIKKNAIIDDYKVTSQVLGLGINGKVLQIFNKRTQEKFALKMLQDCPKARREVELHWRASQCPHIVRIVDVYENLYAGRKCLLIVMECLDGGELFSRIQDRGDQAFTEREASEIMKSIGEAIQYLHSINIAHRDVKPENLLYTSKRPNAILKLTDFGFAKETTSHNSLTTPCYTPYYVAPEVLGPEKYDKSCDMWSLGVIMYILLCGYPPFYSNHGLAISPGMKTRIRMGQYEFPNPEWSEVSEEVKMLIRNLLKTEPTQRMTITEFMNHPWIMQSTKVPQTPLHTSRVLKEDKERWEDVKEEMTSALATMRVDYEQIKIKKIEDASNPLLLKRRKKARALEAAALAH
MAPK10 (human), sequence (P53779 whole entry, looked up): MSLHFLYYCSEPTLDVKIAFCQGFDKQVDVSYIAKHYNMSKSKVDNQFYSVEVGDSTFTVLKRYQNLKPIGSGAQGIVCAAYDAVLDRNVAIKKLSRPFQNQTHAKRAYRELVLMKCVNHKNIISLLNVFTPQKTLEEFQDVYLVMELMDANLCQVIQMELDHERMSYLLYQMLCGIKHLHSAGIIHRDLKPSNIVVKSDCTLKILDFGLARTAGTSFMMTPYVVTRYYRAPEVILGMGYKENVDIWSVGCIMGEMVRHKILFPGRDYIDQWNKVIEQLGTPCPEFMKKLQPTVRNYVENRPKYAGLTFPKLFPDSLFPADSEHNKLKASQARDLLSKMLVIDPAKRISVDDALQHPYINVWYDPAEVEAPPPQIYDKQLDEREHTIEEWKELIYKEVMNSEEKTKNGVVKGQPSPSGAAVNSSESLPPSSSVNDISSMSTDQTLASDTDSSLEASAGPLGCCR

N#CC(=C(\N)Sc1ccccc1N)/C(C#N)=C(/N)Sc1ccccc1N
residual activity ([1]; compound 10.0 µM): 95% | residual activity ([2]; compound 10.0 µM): 87% | residual activity ([3]; compound 10.0 µM): 93% | residual activity ([4]; compound 10.0 µM): 69% | residual activity ([5]; compound 10.0 µM): 90% | residual activity ([6]; compound 10.0 µM): 96% | residual activity ([7]; compound 10.0 µM): 72% | residual activity ([8]; compound 10.0 µM, ATP 20 µM): 77% | residual activity ([8]; compound 10.0 µM, ATP 50 µM): 77% | residual activity ([9]; compound 10.0 µM): 98% | residual activity ([10]; compound 10.0 µM): 68% | residual activity ([11]; compound 10.0 µM): 87% | residual activity ([12]; compound 10.0 µM): 85% | residual activity ([13]; compound 10.0 µM): 76% | residual activity ([14]; compound 10.0 µM): 86% | residual activity ([15]; compound 10.0 µM): 95% | residual activity ([16]; compound 10.0 µM): 99% | residual activity ([17]; compound 10.0 µM): 94% | residual activity ([18]; compound 10.0 µM): 95% | residual activity ([19]; compound 10.0 µM): 97% | residual activity ([20]; compound 10.0 µM): 95% | residual activity ([21]; compound 10.0 µM): 98% | residual activity ([22]; compound 10.0 µM): 86% | residual activity ([23]; compound 10.0 µM): 91% | residual activity ([24]; compound 10.0 µM): 92% | residual activity ([25]; compound 10.0 µM): 84%

O=S(=O)(NCCNC/C=C/c1ccc(Br)cc1)c1cccc2cnccc12
residual activity ([1]; compound 1.0 µM): 111% | residual activity ([2]; compound 1.0 µM): 106% | residual activity ([3]; compound 1.0 µM): 98% | residual activity ([4]; compound 1.0 µM): 96% | residual activity ([5]; compound 1.0 µM): 104% | residual activity ([6]; compound 1.0 µM): 81% | residual activity ([26]; compound 1.0 µM): 76% | residual activity ([27]; compound 1.0 µM): 105% | residual activity ([7]; compound 1.0 µM): 90% | residual activity ([8]; compound 1.0 µM, ATP 20 µM): 91% | residual activity ([8]; compound 1.0 µM, ATP 50 µM): 56% | residual activity ([9]; compound 1.0 µM): 69% | residual activity ([10]; compound 1.0 µM): 88% | residual activity ([11]; compound 1.0 µM): 90% | residual activity ([12]; compound 1.0 µM): 7% | residual activity ([13]; compound 1.0 µM): 14% | residual activity ([14]; compound 1.0 µM): 84% | residual activity ([15]; compound 1.0 µM): 80% | residual activity ([28]; compound 1.0 µM): 102% | residual activity ([19]; compound 1.0 µM): 101% | residual activity ([20]; compound 1.0 µM): 91% | residual activity ([21]; compound 1.0 µM): 93% | residual activity ([29]; compound 1.0 µM): 89% | residual activity ([22]; compound 1.0 µM): 70% | residual activity ([23]; compound 1.0 µM): 91% | residual activity ([24]; compound 1.0 µM): 102% | residual activity ([25]; compound 1.0 µM): 100%

CN[C@@H]1C[C@@H]2O[C@@](C)([C@@H]1OC)n1c3ccccc3c3c4c(c5c6ccccc6n2c5c31)C(=O)N[C@@H]4O
residual activity ([1]; compound 0.01 µM): 75% | residual activity ([2]; compound 0.01 µM): 116% | residual activity ([3]; compound 0.01 µM): 94% | residual activity ([4]; compound 0.01 µM): 90% | residual activity ([5]; compound 0.01 µM): 104% | residual activity [30]: 96% | residual activity ([6]; compound 0.01 µM): 2% | residual activity ([26]; compound 0.01 µM): 35% | residual activity ([27]; compound 0.01 µM): 107% | residual activity ([7]; compound 0.01 µM): 112% | residual activity ([8]; compound 0.01 µM, ATP 20 µM): 2% | residual activity ([8]; compound 0.01 µM, ATP 50 µM): 83% | residual activity ([9]; compound 0.01 µM): 96% | residual activity ([11]; compound 0.01 µM): 52% | residual activity ([12]; compound 0.01 µM): 10% | residual activity ([13]; compound 0.01 µM): 79% | residual activity ([14]; compound 0.01 µM): 36% | residual activity ([15]; compound 0.01 µM): 6% | residual activity ([16]; compound 0.01 µM): 92% | residual activity ([17]; compound 0.01 µM): 33% | residual activity ([18]; compound 0.01 µM): 6% | residual activity ([28]; compound 0.01 µM): 58% | residual activity ([19]; compound 0.01 µM): 109% | residual activity ([20]; compound 0.01 µM): 83% | residual activity ([21]; compound 0.01 µM): 107% | residual activity ([29]; compound 0.01 µM): 80% | residual activity ([22]; compound 0.01 µM): 59% | residual activity ([23]; compound 0.01 µM): 105% | residual activity ([24]; compound 0.01 µM): 21% | residual activity ([25]; compound 0.01 µM): 76%

— the kinase profiling compilation of Christmann-Franck et al. (2016)
